Test results published in PMC3421993 (Journal of Experimental Botany, 2012).

Molecular target: T1, HRP (horseradish peroxidase) (Armoracia rusticana, UniProt P00433)
T1 sequence (P00433 31-338): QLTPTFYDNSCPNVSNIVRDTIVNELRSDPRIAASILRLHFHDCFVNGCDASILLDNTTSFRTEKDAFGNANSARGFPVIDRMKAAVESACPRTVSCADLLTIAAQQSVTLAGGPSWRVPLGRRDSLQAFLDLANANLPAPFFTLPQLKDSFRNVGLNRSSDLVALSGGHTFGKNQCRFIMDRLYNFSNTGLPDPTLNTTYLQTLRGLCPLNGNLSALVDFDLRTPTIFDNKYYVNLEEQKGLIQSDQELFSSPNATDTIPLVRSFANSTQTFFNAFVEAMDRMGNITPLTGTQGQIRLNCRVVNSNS
Assay: spectrophotometric peroxidase assay, […] nm
Type: biochemical
Conditions: read-out: K m (mM) / Pyrogallol; 3.3 mM H2O2; 100 mM Na-phosphate pH 6.5

Km: 1.1 ± 0.1 mM
Compound: Oc1cccc(O)c1O [pyrogallol]
